From US11795460B2, “Compositions and methods for TTR gene editing and treating ATTR amyloidosis” (Intellia Therapeutics, Inc., priority 2017, dated 2023)
Strand notation (5' to 3'): a small letter for the sugar, then the base; units joined by * are phosphorothioate-linked, units joined directly phosphodiester-linked; [ ] holds rarer units or linkages, { } end groups; capitals alone tell only the bases. m = 2'-O-methyl; r = 2'-OH (RNA)

What was measured:
Type in all cases: cell-based, human
TTR [1] = assay: TTR editing in HUH7 cells transfected with Spy Cas9 mRNA and dgRNAs (Table 5); details: HUH7 cells co-transfected with Spy Cas9 mRNA (SEQ ID NO:2) and dgRNAs
Procedure: HUH7 cell line. The human hepatocellular carcinoma cell line HUH7 (Japanese Collection of Research Bioresources Cell Bank, Cat. JCRB0403) was cultured in DMEM media supplemented with 10% fetal bovine serum. Cells were plated on at a density of 15,000 cells/well in a 96-well plate 20 hours prior to transfection. Cells were transfected with Lipofectamine MessengerMAX (ThermoFisher, Cat. LMRNA003) per the manufacturer's protocol. Cells were sequentially transfected with a lipoplex containing Spy Cas9 mRNA (100 ng), MessengerMAX (0.3 μL/well) and OptiMem followed by a separate lipoplex containing individual crRNA (25 nM), tracer RNA (25 nM), MessengerMAX (0.3 μL/well) and OptiMem.
Transfected cells were harvested post-transfection at 24, 48, or 72 hours. The genomic DNA was extracted from each well of a 96-well plate using 50 μL/well BuccalAmp DNA Extraction solution (Epicentre, Cat. QE09050) per manufacturer's protocol. All DNA samples were subjected to PCR and subsequent NGS analyses, as described herein.
To quantitatively determine the efficiency of editing at the target location in the genome, sequencing was utilized to identify the presence of insertions and deletions introduced by gene editing.
Primers were designed around the target site within the gene of interest (e.g. TTR), and the genomic area of interest was amplified.
Additional PCR was performed per the manufacturer's protocols (Illumina) to add chemistry for sequencing. The amplicons were sequenced on an Illumina MiSeq instrument. The reads were aligned to a reference genome (e.g., the human reference genome (hg38), the cynomologus reference genome (mf5), the rat reference genome (rn6), or the mouse reference genome (mm10)) after eliminating those having low quality scores. The resulting files containing the reads were mapped to the reference genome (BAM files), where reads that overlapped the target region of interest were selected and the number of wild type reads versus the number of reads which contain an insertion, substitution, or deletion was calculated.
The editing percentage (e.g., the “editing efficiency” or “percent editing” or “indel frequency”) is defined as the total number of sequence reads with insertions/deletions (“indels”) or substitutions over the total number of sequence reads, including wild type.
Guides in dgRNA format targeting human TTR and the cynomologus matched sequences were delivered to HEK293 Cas9, HUH7 and HepG2 cell lines, as well as primary human hepatocytes and primary cynomolgus monkey hepatocytes as described in Example 1. Percent editing was determined for crRNAs comprising each guide sequence across each cell type and the guide sequences were then rank ordered based on highest % edit. The screening data for the guide sequences in Table 1 in all five cell lines are listed below (Table 4 through 11).

TTR [2] = assay: TTR editing in HepG2 cells transfected with Spy Cas9 mRNA and dgRNAs (Table 6); details: HepG2 cells co-transfected with Spy Cas9 mRNA (SEQ ID NO:2) and dgRNAs
How it was run: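 Percent editing is the share of sequencing reads at the TTR target locus that carry insertions, deletions or substitutions, measured by Illumina amplicon sequencing aligned to hg38. Samples came from HepG2 cells lipofected first with 100 ng Cas9 mRNA and then with dual-guide RNA (25 nM crRNA/tracer), collected 24–72 h later.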

off-target genomic sites = assay: Off-target oligo insertion based assay in HEK293_Cas9 cells, dgRNAs and sgRNAs (Tables 23, 24); details: for # Sites (off-target integration sites detected): Table 24, TTR sgRNAs in HekCas9 cells, insertion detection method; for # Sites in HekCas9 cells (Example 5): Table 30, TTR sgRNAs, repeated from Example 5 for comparison
Procedure: An oligo insertion based assay (See, e.g., Tsai et al., Nature Biotechnology 33, 187-197; 2015) was used to determine potential off-target genomic sites cleaved by Cas9 targeting TTR. Forty-five dgRNAs from Table 1 (and two control guides with known off-target profiles) were screened in the HEK293 Cas9 cells. The human embryonic kidney adenocarcinoma cell line HEK293 constitutively expressing Spy Cas9 (“HEK293_Cas9”) was cultured in DMEM media supplemented with 10% fetal bovine serum and 500 μg/ml G418. Cells were plated at a density of 30,000 cells/well in a 96-well plate 24 hours prior to transfection. Cells were transfected with Lipofectamine RNAiMAX (ThermoFisher, Cat. 13778150) per the manufacturer's protocol. Cells were transfected with a lipoplex containing individual crRNA (15 nM), trRNA (15 nM), and donor oligo with (10 nM) Lipofectamine RNAiMAX (0.3 μL/well) and OptiMem. Cells were lysed 24 hours post transfection and genomic DNA was extracting using Zymo's Quick gDNA 96 Extraction kit (catalog #D3012) following the manufacturer's recommended protocol. The gDNA was quantified using the Qubit High Sensitivity dsDNA kit (Life Technologies). Libraries were prepared per the previously described method in Tsai et al, 2015 with minor modifications. Sequencing was performed on Illumina's MiSeq and HiSeq 2500. The assay identified potential off-target sites for some of the crRNAs which are plotted in FIG. 2.
Additionally, a subset of the guides was assessed for off-target potential as modified sgRNAs in the Hek_Cas9 cells via the oligo based insertion method described above. The off-target results were plotted in FIG. 4.

Molecule	Avg % Deletion (TTR [1]) [%]	Avg % Edit (TTR [1]) [%]	Avg % Insert (TTR [1]) [%]	Avg % Deletion (TTR [2]) [%]	Avg % Edit (TTR [2]) [%]	Avg % Insert (TTR [2]) [%]	# Sites (off-target integration sites detected) (off-target genomic sites)	# Sites in HekCas9 cells (Example 5) (off-target genomic sites)
CUGGUAUUUGUGUCUGAGGC (tested as dual guide RNA, chemistry not given here) [CR003341]	13.20	20.58	7.78	5.66	15.60	9.94		
GCAUGGGCUCACAACUGAGG (tested as dual guide RNA, chemistry not given here) [CR003362]	23.76	26.43	3.43	0.94	17.44	16.50		
AUGCAGCUCUCCAGACUCAC (tested as dual guide RNA, chemistry not given here) [CR003358]	26.60	36.50	10.53	7.27	35.93	28.66		
GCUGCAUGGGCUCACAACUG (tested as dual guide RNA, chemistry not given here) [CR003361]	22.44	28.68	6.84	2.58	14.05	11.47		
CUGAGGAGGAAUUUGUAGAA (tested as dual guide RNA, chemistry not given here) [CR003364]	23.03	47.13	24.68	20.85	51.88	31.03		
UACUCACCUCUGCAUGCUCA (tested as dual guide RNA, chemistry not given here) [CR003372]	17.25	21.52	4.89	2.42	14.57	12.14		
CCUCUGCAUGCUCAUGGAAU (tested as dual guide RNA, chemistry not given here) [CR003370]	35.55	39.16	4.83	3.62	28.51	24.88		
AAUAGGAGUAGGGGCUCAGC (tested as dual guide RNA, chemistry not given here) [CR003384]	16.29	17.03	0.84	0.25	3.37	3.12		
ACCUCUGCAUGCUCAUGGAA (tested as dual guide RNA, chemistry not given here) [CR003371]	35.65	40.47	6.07	1.84	15.91	14.07		
G000499: TTR sgRNA modified sequence, Human, SEQ ID No. 106; guide sequence of CR005303 (nucleic acid) guide: mU*mG*mA*rArUrCrCrArArGrUrGrUrCrCrUrCrUrGrArGrUrUrUrUrArGrAmGmCmUmAmGmAmAmAmUmAmGmCrArArGrUrUrArArArArUrArArGrGrCrUrArGrUrCrCrGrUrUrArUrCrAmAmCmUmUmGmAmAmAmAmAmGmUmGmGmCmAmCmCmGmAmGmUmCmGmGmUmGmCmU*mU*mU*mU							4	4
G000481: TTR sgRNA modified sequence, Human, SEQ ID No. 88; guide sequence of CR003345 (nucleic acid) guide: mU*mC*mU*rArGrArArCrUrUrUrGrArCrCrArUrCrArGrGrUrUrUrUrArGrAmGmCmUmAmGmAmAmAmUmAmGmCrArArGrUrUrArArArArUrArArGrGrCrUrArGrUrCrCrGrUrUrArUrCrAmAmCmUmUmGmAmAmAmAmAmGmUmGmGmCmAmCmCmGmAmGmUmCmGmGmUmGmCmU*mU*mU*mU							3	3
G000486: TTR sgRNA modified sequence, Human, SEQ ID No. 93; guide sequence of CR003339 (nucleic acid) guide: mA*mC*mA*rCrArArArUrArCrCrArGrUrCrCrArGrCrArGrUrUrUrUrArGrAmGmCmUmAmGmAmAmAmUmAmGmCrArArGrUrUrArArArArUrArArGrGrCrUrArGrUrCrCrGrUrUrArUrCrAmAmCmUmUmGmAmAmAmAmAmGmUmGmGmCmAmCmCmGmAmGmUmCmGmGmUmGmCmU*mU*mU*mU							12	12
G000488: TTR sgRNA modified sequence, Human, SEQ ID No. 95; guide sequence of CR003346 (nucleic acid) guide: mA*mA*mA*rGrUrUrCrUrArGrArUrGrCrUrGrUrCrCrGrGrUrUrUrUrArGrAmGmCmUmAmGmAmAmAmUmAmGmCrArArGrUrUrArArArArUrArArGrGrCrUrArGrUrCrCrGrUrUrArUrCrAmAmCmUmUmGmAmAmAmAmAmGmUmGmGmCmAmCmCmGmAmGmUmCmGmGmUmGmCmU*mU*mU*mU							0	0
G000489: TTR sgRNA modified sequence, Human, SEQ ID No. 96; guide sequence of CR003344 (nucleic acid) guide: mU*mU*mU*rGrArCrCrArUrCrArGrArGrGrArCrArCrUrGrUrUrUrUrArGrAmGmCmUmAmGmAmAmAmUmAmGmCrArArGrUrUrArArArArUrArArGrGrCrUrArGrUrCrCrGrUrUrArUrCrAmAmCmUmUmGmAmAmAmAmAmGmUmGmGmCmAmCmCmGmAmGmUmCmGmGmUmGmCmU*mU*mU*mU							19	19
G000482: TTR sgRNA modified sequence, Human, SEQ ID No. 89; guide sequence of CR003365 (nucleic acid) guide: mU*mG*mU*rArGrArArGrGrGrArUrArUrArCrArArArGrGrUrUrUrUrArGrAmGmCmUmAmGmAmAmAmUmAmGmCrArArGrUrUrArArArArUrArArGrGrCrUrArGrUrCrCrGrUrUrArUrCrAmAmCmUmUmGmAmAmAmAmAmGmUmGmGmCmAmCmCmGmAmGmUmCmGmGmUmGmCmU*mU*mU*mU							13	13
G000480: TTR sgRNA modified sequence, Human, SEQ ID No. 87; guide sequence of CR003353 (nucleic acid) guide: mA*mA*mA*rGrGrCrUrGrCrUrGrArUrGrArCrArCrCrUrGrUrUrUrUrArGrAmGmCmUmAmGmAmAmAmUmAmGmCrArArGrUrUrArArArArUrArArGrGrCrUrArGrUrCrCrGrUrUrArUrCrAmAmCmUmUmGmAmAmAmAmAmGmUmGmGmCmAmCmCmGmAmGmUmCmGmGmUmGmCmU*mU*mU*mU							11	11
G000494: TTR sgRNA modified sequence, Human, SEQ ID No. 101; guide sequence of CR003360 (nucleic acid) guide: mG*mU*mG*rArGrUrCrUrGrGrArGrArGrCrUrGrCrArUrGrUrUrUrUrArGrAmGmCmUmAmGmAmAmAmUmAmGmCrArArGrUrUrArArArArUrArArGrGrCrUrArGrUrCrCrGrUrUrArUrCrAmAmCmUmUmGmAmAmAmAmAmGmUmGmGmCmAmCmCmGmAmGmUmCmGmGmUmGmCmU*mU*mU*mU							4	4
